From the NIST ThermoML archive (doi:10.1016/j.jct.2017.08.004)
Numbers after ± are expanded uncertainties.

Test: molar heat capacity at constant pressure
Details: 101.33 kPa

OC[C@@H](O)[C@@H](O)[C@H](O)[C@H](O)CO [D-mannitol]
molar heat capacity at constant pressure [J/K/mol]
Details	Small sample (50 mg) DSC	relaxation calorimetry
289.15 K, Crystal	223.23 ± 36	–
290 K, Crystal	–	224.45 ± 14
290.15 K, Crystal	223.75 ± 36	–
291.15 K, Crystal	224.51 ± 36	–
292.15 K, Crystal	225.52 ± 36	–
292.3 K, Crystal	–	226.18 ± 9.2
293.15 K, Crystal	226.11 ± 36	–
294.15 K, Crystal	226.79 ± 36	–
295.15 K, Crystal	227.7 ± 37	–
296.15 K, Crystal	228.45 ± 37	–
297.15 K, Crystal	229.12 ± 37	–
298.15 K, Crystal	229.81 ± 37	230.54 ± 14
299.15 K, Crystal	230.64 ± 37	–
300 K, Crystal	–	231.93 ± 14
300.15 K, Crystal	231.67 ± 37	–
301.15 K, Crystal	232.46 ± 37	–
302.15 K, Crystal	233.28 ± 37	–
302.32 K, Crystal	–	233.27 ± 9.5
303.15 K, Crystal	234.21 ± 38	–
304.15 K, Crystal	235.1 ± 38	–
305 K, Crystal	236.23 ± 38	–
305.15 K, Crystal	236.24 ± 38	–
306.15 K, Crystal	237.06 ± 38	–
307.15 K, Crystal	238.05 ± 38	–
308.15 K, Crystal	239.43 ± 38	–
309.15 K, Crystal	240.22 ± 39	–
310 K, Crystal	241.08 ± 39	–
310.15 K, Crystal	241.1 ± 39	–
311.15 K, Crystal	242.22 ± 39	–
312.15 K, Crystal	243.21 ± 39	–
313.15 K, Crystal	244.03 ± 39	–
314.15 K, Crystal	244.96 ± 39	–
315 K, Crystal	245.72 ± 39	–
315.15 K, Crystal	245.76 ± 39	–
316.15 K, Crystal	246.45 ± 40	–
317.15 K, Crystal	247.23 ± 40	–
318.15 K, Crystal	248.19 ± 40	–
319.15 K, Crystal	249.13 ± 40	–
320 K, Crystal	250.2 ± 40	–
320.15 K, Crystal	250.01 ± 40	–
321.15 K, Crystal	250.96 ± 40	–
322.15 K, Crystal	251.62 ± 40	–
323.15 K, Crystal	252.78 ± 41	–
324.15 K, Crystal	253.84 ± 41	–
325 K, Crystal	254.58 ± 41	–
325.15 K, Crystal	254.69 ± 41	–
326.15 K, Crystal	255.76 ± 41	–
327.15 K, Crystal	256.67 ± 41	–
328.15 K, Crystal	257.61 ± 41	–
329.15 K, Crystal	258.51 ± 42	–
330 K, Crystal	258.9 ± 42	–
330.15 K, Crystal	259.36 ± 42	–
331.15 K, Crystal	260.09 ± 42	–
332.15 K, Crystal	260.73 ± 42	–
333.15 K, Crystal	261.83 ± 42	–
334.15 K, Crystal	262.7 ± 42	–
335 K, Crystal	263.16 ± 42	–
335.15 K, Crystal	263.13 ± 42	–
336.15 K, Crystal	263.97 ± 42	–
337.15 K, Crystal	264.87 ± 43	–
338.15 K, Crystal	265.55 ± 43	–
339.15 K, Crystal	266.62 ± 43	–
340 K, Crystal	267.39 ± 43	–
340.15 K, Crystal	267.34 ± 43	–
341.15 K, Crystal	268.11 ± 43	–
342.15 K, Crystal	269.07 ± 43	–
343.15 K, Crystal	270.04 ± 43	–
344.15 K, Crystal	271.03 ± 44	–
345 K, Crystal	271.57 ± 44	–
345.15 K, Crystal	272.18 ± 44	–
346.15 K, Crystal	272.93 ± 44	–
347.15 K, Crystal	273.5 ± 44	–
348.15 K, Crystal	274.48 ± 44	–
349.15 K, Crystal	275.36 ± 44	–
350 K, Crystal	275.71 ± 44	–
350.15 K, Crystal	275.83 ± 44	–
351.15 K, Crystal	276.6 ± 44	–
352.15 K, Crystal	277.59 ± 45	–
353.15 K, Crystal	278.11 ± 45	–
354.15 K, Crystal	278.88 ± 45	–
355 K, Crystal	279.8 ± 45	–
355.15 K, Crystal	279.75 ± 45	–
356.15 K, Crystal	280.45 ± 45	–
357.15 K, Crystal	281.3 ± 45	–
358.15 K, Crystal	282.01 ± 45	–
359.15 K, Crystal	282.77 ± 45	–
360 K, Crystal	283.81 ± 46	–
360.15 K, Crystal	283.45 ± 46	–
361.15 K, Crystal	284.29 ± 46	–
362.15 K, Crystal	285.29 ± 46	–
363.15 K, Crystal	285.81 ± 46	–
364.15 K, Crystal	286.87 ± 46	–
365 K, Crystal	287.75 ± 46	–
365.15 K, Crystal	287.69 ± 46	–
366.15 K, Crystal	288.42 ± 46	–
367.15 K, Crystal	289.35 ± 46	–
368.15 K, Crystal	290.07 ± 47	–
369.15 K, Crystal	290.83 ± 47	–
370 K, Crystal	291.59 ± 47	–
370.15 K, Crystal	291.54 ± 47	–
371.15 K, Crystal	292.39 ± 47	–
372.15 K, Crystal	293.2 ± 47	–
373.15 K, Crystal	293.84 ± 47	–
374.15 K, Crystal	294.5 ± 47	–
375 K, Crystal	295.33 ± 47	–
375.15 K, Crystal	295.14 ± 47	–
376.15 K, Crystal	295.96 ± 48	–
377.15 K, Crystal	296.71 ± 48	–
378.15 K, Crystal	297.3 ± 48	–
379.15 K, Crystal	297.95 ± 48	–
380 K, Crystal	298.96 ± 48	–
380.15 K, Crystal	298.84 ± 48	–
381.15 K, Crystal	299.49 ± 48	–
382.15 K, Crystal	300.09 ± 48	–
383.15 K, Crystal	300.96 ± 48	–
384.15 K, Crystal	301.85 ± 48	–
385 K, Crystal	302.49 ± 49	–
385.15 K, Crystal	302.62 ± 49	–
386.15 K, Crystal	303.19 ± 49	–
387.15 K, Crystal	303.89 ± 49	–
388.15 K, Crystal	304.75 ± 49	–
389.15 K, Crystal	305.62 ± 49	–
390 K, Crystal	305.94 ± 49	–
390.15 K, Crystal	306.4 ± 49	–
391.15 K, Crystal	307.13 ± 49	–
392.15 K, Crystal	307.69 ± 49	–
393.15 K, Crystal	308.43 ± 50	–
394.15 K, Crystal	309.27 ± 50	–
395 K, Crystal	309.33 ± 50	–
395.15 K, Crystal	309.91 ± 50	–
396.15 K, Crystal	310.41 ± 50	–
397.15 K, Crystal	311.05 ± 50	–
398.15 K, Crystal	311.45 ± 50	–
399.15 K, Crystal	312.11 ± 50	–
400 K, Crystal	312.71 ± 50	–
400.15 K, Crystal	312.88 ± 50	–
401.15 K, Crystal	313.5 ± 50	–
402.15 K, Crystal	314.14 ± 50	–
403.15 K, Crystal	315.02 ± 51	–
404.15 K, Crystal	315.76 ± 51	–
405 K, Crystal	316.13 ± 51	–
405.15 K, Crystal	316.19 ± 51	–
406.15 K, Crystal	317 ± 51	–
407.15 K, Crystal	317.55 ± 51	–
408.15 K, Crystal	318.33 ± 51	–
409.15 K, Crystal	319.11 ± 51	–
410 K, Crystal	319.66 ± 51	–
410.15 K, Crystal	319.62 ± 51	–
411.15 K, Crystal	320.34 ± 51	–
412.15 K, Crystal	321.09 ± 52	–
413.15 K, Crystal	321.71 ± 52	–
414.15 K, Crystal	322.33 ± 52	–
415 K, Crystal	323.4 ± 52	–
415.15 K, Crystal	323.11 ± 52	–
416.15 K, Crystal	323.76 ± 52	–
417.15 K, Crystal	324.47 ± 52	–
418.15 K, Crystal	325.49 ± 52	–
419.15 K, Crystal	326.12 ± 52	–
420 K, Crystal	327.48 ± 53	–
420.15 K, Crystal	327.06 ± 53	–
421.15 K, Crystal	327.89 ± 53	–
422.15 K, Crystal	328.71 ± 53	–
423.15 K, Crystal	329.87 ± 53	–
424.15 K, Crystal	330.92 ± 53	–
425 K, Crystal	332.03 ± 53	–
425.15 K, Crystal	332.36 ± 53	–
458.15 K, Liquid	511.69 ± 82	–
459.15 K, Liquid	511.2 ± 82	–
460 K, Liquid	511.26 ± 82	–
460.15 K, Liquid	510.98 ± 82	–
461.15 K, Liquid	510.64 ± 82	–
462.15 K, Liquid	510.47 ± 82	–
463.15 K, Liquid	510.51 ± 82	–
464.15 K, Liquid	510.42 ± 82	–
465 K, Liquid	511.16 ± 82	–
465.15 K, Liquid	510.6 ± 82	–
466.15 K, Liquid	510.6 ± 82	–
467.15 K, Liquid	510.56 ± 82	–
468.15 K, Liquid	510.86 ± 82	–
469.15 K, Liquid	511.11 ± 82	–
470 K, Liquid	511.05 ± 82	–
470.15 K, Liquid	511.08 ± 82	–
471.15 K, Liquid	511.49 ± 82	–
472.15 K, Liquid	511.38 ± 82	–
473.15 K, Liquid	511.18 ± 82	–
474.15 K, Liquid	511.09 ± 82	–
475 K, Liquid	510.95 ± 82	–
475.15 K, Liquid	510.93 ± 82	–
476.15 K, Liquid	510.9 ± 82	–
477.15 K, Liquid	510.87 ± 82	–
478.15 K, Liquid	510.67 ± 82	–
479.15 K, Liquid	510.62 ± 82	–
480 K, Liquid	510.84 ± 82	–
480.15 K, Liquid	510.66 ± 82	–
481.15 K, Liquid	510.52 ± 82	–
482.15 K, Liquid	510.71 ± 82	–
483.15 K, Liquid	510.62 ± 82	–
484.15 K, Liquid	510.5 ± 82	–
485 K, Liquid	510.74 ± 82	–
485.15 K, Liquid	510.63 ± 82	–
486.15 K, Liquid	510.59 ± 82	–
487.15 K, Liquid	510.6 ± 82	–
488.15 K, Liquid	510.74 ± 82	–
490 K, Liquid	510.64 ± 82	–
